The record followed here is patent US5594033A, “Secoaporphine compound on arrhythmia” (National Science Council, priority 1993, dated 1997).

In experiment [1] the test system is rat right atria, left atria and right ventricular strips. The experiment can be described thus: Contractile force and heart rate of isolated rat atria and right ventricle. As to conditions: n = 6, mean ± S.E.M. On the procedure: Method: After anesthetizing rats with pentobarbital, the heart was taken out, both the atrium and the right ventricle were separately placed in 10 ml of Tyrode solution. The spontaneous contraction of the right atrium was recorded. The contraction of the left atrium and the right ventricle was driven by stimulation at a frquency of twice per second.

A further experiment deals with myocyte action potential. The experiment is described as follows: Action potential of myocytes, single cell current clamp. Type of experiment: cell-based, rat. An excerpt: (§1) Ventricular cells isolated from rats and guinea pigs were placed in a chamber mounted on an inverted microscope, the effects of the test compounds on the action potential and the membrane current were studied by single cell current clamp and voltage clamp technique.

For experiment [2], the system named is transient outward current (Ito) in rat ventricular cell. The experiment is described as follows: Transient outward current (Ito), voltage clamp. It is filed as cell-based. As to conditions: for inhibition at 6 µM: Rattus norvegicus, read-out: Ito.
Text: as §1

The subject of experiment [3] is delayed rectifier (IK) in guinea pig ventricular cell. The experiment is described as follows: Delayed rectifier potassium current (IK), voltage clamp. It is filed as cell-based. To be noted: Cavia porcellus, guinea pig ventricle cell, read-out: Degree of inhibition of IK.
Text: as §1

The subject of experiment [4] is sodium current (INa), sodium channel. The experiment is described as follows: Sodium inward current (INa), voltage clamp. Type of experiment: cell-based, rat. As to conditions: for V1/2 of potential-dependent steady state inactivation of sodium current: control -60.9 mV.
Text: as §1

Experiment [5] deals with calcium current (ICa) of rat ventricle cell. The experiment can be described thus: Calcium inward current (ICa), voltage clamp. It is filed as cell-based.
Text: as §1

In experiment [6] the test system is guinea pig left atrium treated with 0.6 μM ouabain. The experiment can be described thus: Ouabain induced arrhythmia in guinea pig left atria. To be noted: for minimal effective concentration: Cavia porcellus, read-out: Concentration that suppressed the ouabain-induced arrhythmia. On the procedure: The left atrium of guinea pigs was first treated with 0.6 μM of ouabain and the contractile force was monitored.

Structures are written as SMILES. Like-named read-outs stand apart in the source and are kept apart here.

Take `C=CCN(C)CCc1cc(O)c(OC)c2c1ccc1cc(O)c(OC)cc12` [compound 1, N-allylsecoboldine]: the activity at 9 µM was determined as 126 ± 6.3% in experiment [1] (left atria driven at 2 Hz, read-out: Contractile tension (%)); 58.5 ± 3.4% in experiment [1] (right atria, spontaneous beating rate, read-out: H. R. (%)); 164 ± 14% in experiment [1] (right atria, spontaneous contraction, read-out: Contractile tension (%)); 126 ± 7.3% in experiment [1] (right ventricle strips driven at 2 Hz, read-out: Contractile tension (%)). Also, the “Prolongation of the myocyte action potential” value in the experiment with myocyte action potential (1 μM) is “prolongation of the myocyte action potential was seen”. Besides, the “Duration of the action potential (prolonged to)” value in the experiment with myocyte action potential (3 μM, driven at 0.2 Hz) is listed as “five”. Besides, the Action potential plateau result in the experiment with myocyte action potential (concentration not given, FIG. 4) is given as “increased it”. In addition, the “Shift of the potential-dependent inactivation curve of Ito” value in experiment [2] (FIG. 6, 0.6 μM) was “to the right”. Moreover, the inhibition at 1 µM in experiment [3] is 20 to 30%. In addition, the inhibition at 3 µM in experiment [3] (3 μM) lay in the range of 50 to 60%. Further, in experiment [3] (9 μM), the inhibition at 9 µM was 70 to 80%. Also, the “V1/2 of potential-dependent steady state inactivation of sodium current” value was -70.8 mV in experiment [4] (3 μM) and -85.9 mV in experiment [4] (9 μM). Further, the “Sodium current, % of control” value in experiment [4] (0.9 to 1.2 μM, guinea pig atrial cell or rat ventricle cell) is on record as 25 % of control. Moreover, the “Inhibitory effect on calcium current” value in experiment [5] (3 μM) is on record as “did not show any inhibitory effect”. The activity at 12 µM in experiment [5] (12 μM, added in cumulative manner, rat ventricle cell, read-out: Calcium current (ICa), % of control) was 71%. In experiment [5] (Rattus norvegicus, 0.1 h, 12 μM, non-treated cell retained 79% at 6 minutes, read-out: Actual degree of inhibition in calcium current, corrected for spontaneous rundown), the inhibition at 12 µM turned out to be 9%.
Turning to `C=CCN(C)CCc1cc(O)c(OC)c2c1ccc1cc(OC)c(OC)cc12` [compound 3, N-allylsecopredicentrine], the minimal effective concentration in experiment [6] came to 30 µM.
With `C=CCN(C)CCc1cc(OC)c(OC)c2c1ccc1cc(OC)c(OC)cc12` [compound 4, N-allylsecoglaucine], the “Effect on the myocyte action potential” value in the experiment with myocyte action potential (compared with N-allylsecoboldine) is recorded as “very similar effect on the myocyte action potential as N-allylsecoboldine”. The “Arrhythmia induced by Ouabain: effect on rhythm” value in experiment [6] (FIG. 12, ouabain 0.6 μM) is listed as “conversion to normal paced rhythm”.
With `COc1cc2c(ccc3c(CCN(C)Cc4ccccc4)cc(O)c(OC)c32)cc1O` [compound 5, N-benzylsecoboldine], in experiment [2] (3 μM, rat ventricular cell), the “Inhibitory effect on transient outward current (Ito) versus quinidine” value is “more profound inhibitory effect”. The inhibition at 1 µM in experiment [3] is 30%.
Turning to `COc1cc2ccc3c(CCN(C)C)cc(OC)c(OC)c3c2cc1OC` [compound 8, N-methylsecoglaucine], in experiment [2], the inhibition at 6 µM turned out to be 70%.
For the compound `COc1cc2ccc3c(CCN(C)C)cc(O)c(OC)c3c2cc1OC` [compound 9, N-methylsecopredicentrine], the inhibition at 6 µM in experiment [2] was 60%.
Same read-out and setting: then `COc1cc2c(ccc3c(CCN(C)C#N)cc(O)c(OC)c32)cc1O` [compound 26, N-cyanosecoboldine], with 80%.
Turning to `CCN(CC)CC(=O)Nc1c(C)cccc1C` [lidocaine, reference compound], the minimal effective concentration in experiment [6] (guinea pig atrium, 0.6 μM ouabain) is at least 30 µM.
As for `C=C[C@H]1C[N@@]2CC[C@H]1C[C@@H]2[C@@H](O)c1ccnc2ccc(OC)cc12` [quinidine, reference compound], in the experiment on myocyte action potential (30 MM), the Action potential plateau entry was “decreased action potential plateau”. Also, the inhibition at 3 µM in experiment [2] (3 μM, rat ventricular cell, read-out: Reduction of Ito) was about 60%.
